In patent publication US5830881A, “L-2'3',dideoxy nucleoside analogs as anti-hepatitus B (HBV) agents” (priority 1996, dated 1998):
Like-named read-outs stand apart in the source and are kept apart here.

Assays:
[1] = test system: human immunodeficiency virus (HIV); conditions: in words, literature, cited from earlier work
[2] = test system: Hepatitis B virus; conditions: in words; literature; cited from earlier work
[3] = test system: HBV; conditions: data from published literature; read-out: Anti-HBV ID50; cited from earlier work
[4] = test system: CEM cells; conditions: cited from earlier work; for CC50: data from published literature, 4320 min, read-out: Cytotoxicity ID50
[5] = test system: mitochondrial DNA; conditions: cited from earlier work; for IC50: data from published literature, read-out: Anti-mitochondrial DNA ID50
[6] = test system: HIV-1; conditions: data from published literature; read-out: Anti-HIV ID50; cited from earlier work
[7] = test system: Hepatitis B viral infections; conditions: in words; prior therapy; cited from earlier work
[8] = test system: HBV; experiment: Anti-HBV effects: viral DNA from secreted particles of the 2.2.15 human hepatoma cell line carrying HBV (Southern analysis); format: cell-based, Hepatitis B virus
Protocol: The biological activity of the present compounds was assessed as described by Doong, S-L, et al., Proc. Natl. Acad. Sci. U.S.A 88, 8495-8499 (1991). The human hepatoma cell line carrying the HBV (designated 2.2.15) kindly provided by Dr. G. Acs was used in the study. Price, et al., Proc. Natl. Acad. Sci. U.S.A. 86, 8541 (1989). Briefly, Six day-old cultures were treating with varying concentrations of the drug in the culture medium (Minimum essential medium with Earl's salts and 10% fetal bovine serum). The drug was left in the culture medium for a period of 3 days after which period the medium was aspirated and fresh medium containing the same concentration(s) of the dry was added. At the end of the subsequent 3 day period the culture medium was harvested. The culture medium was processed for obtaining the virions by the polyethylene glycol precipitation method (Doong, et al., supra). Viral DNA thus recovered from the secreted particles was subjected to Southern analysis. Inhibition of the viral replication was determined by the comparison of the viral DNA from drug-treated versus control cultures not treated with the drug.

[9] = Cellular toxicity in T-lymphoblastoic cell line (CEM), cell number 3 days post treatment; format: cell-based; conditions: human; CEM cells, 3 days; read-out: Cytotoxicity ID50
Protocol: (§1) To determine the cellular toxicity of the present compounds, the T-lymphoblastoic cell line (CEM) was used. Cells were subjected to varying concentrations of the drug(s) and cell numbers were determined 3 days post treatment by the method described by Chen, C-H and Cheng, Y-C J. Biol. Chem., 264, 11934 (1989).

[10] = test system: CEM cells; experiment: as above; format: cell-based; conditions: in words
Protocol: as §1

[11] = test system: HIV-1; experiment: Anti-HIV effects in T-lymphoblastoid cell line MT-2 infected with HIV-1; format: cell-based; conditions: Human immunodeficiency virus 1, MT2, MT-2 cells, read-out: Anti-HIV ID50
Protocol: Anti-HIV effects were determined using the T-lymphoblastoid cell line, MT-2 infected with the HIV-1 virus. The inhibition was determined by the method of Larder, B. A., et al., Antimicrob. Agents Chemother., 34, 436 (1990).

[12] = in vitro; conditions: human, cem cells

2',3'-dideoxy-2',3'-didehydroguanosine [Carbovir]
activity against HIV [1]: significant activity

Nc1nc(=O)n([C@@H]2CS[C@H](CO)O2)cc1F (relative stereo) [(±)5-FSddC]
activity against Hepatitis B virus in culture [2]: potent activity

Nc1ccn([C@@H]2CS[C@H](CO)O2)c(=O)n1 (relative stereo) [(±) SddC, (+) and (-)-2',3'-Dideoxy-3'-thiacytidine]
activity against Hepatitis B virus in culture [2]: potent inhibitors of Hepatitis B virus

Nc1ccn([C@H]2CS[C@@H](CO)O2)c(=O)n1 (stereo in doubt) [(-)S-ddC, (-)-2',3'-Dideoxy-3'-thiacytidine]
IC50 [3]: 10 nM
CC50 [4]: 50 µM
IC50 [5]: > 50000 nM
IC50 [6]: 2000 nM
activity against Hepatitis B virus in culture [2]: potent activity

Nc1ccn([C@H]2C=C[C@@H](CO)O2)c(=O)n1 [2',3'-dideoxy-2',3'-didehydrocytidine]
activity against HIV [1]: significant activity

[N-]=[N+]=N[C@H]1C[C@H](n2ccc(=O)[nH]c2=O)O[C@@H]1CO [3'-azido-2',3'-dideoxyuridine]
activity against HIV [1]: significant activity

Nc1ncnc2c1ncn2[C@H]1C[C@H](F)[C@@H](CO)O1 [3'-fluoro-2',3'-dideoxyadenosine]
activity against HIV [1]: significant activity

Cc1cn([C@H]2C[C@H](F)[C@@H](CO)O2)c(=O)[nH]c1=O [3'-fluoro-3'-deoxythymidine]
activity against HIV [1]: significant activity

Cc1cn([C@H]2C[C@H](N=[N+]=[N-])[C@@H](CO)O2)c(=O)[nH]c1=O [AZT]
success in treatment of hepatitis [7]: little, if any, success

Cc1cn([C@H]2C=C[C@@H](CO)O2)c(=O)[nH]c1=O [Compound D4T, 3'-deoxy-2',3'-didehydrothymidine]
activity against HIV [1]: significant activity

OC[C@@H]1CC[C@H](n2cnc3c(O)ncnc32)O1 [DDI, 2',3'-dideoxyinosine]
activity against HIV [1]: significant activity

Nc1ccn([C@@H]2CC[C@H](CO)O2)c(=O)n1 [L-ddC, 1-(2,3-dideoxy-beta-L-ribofuranosyl)cytosine]
IC50 ([8]; Hepatitis B virus, 2.2.15 cells, read-out: Anti-HBV ID50): 10 nM
inhibition of HBV DNA replication ([8]; in words): efficiently inhibited
activity against HBV ([8]; in words, relative activity): several fold higher activity against HBV
CC50 at 72 h [9]: 54 ± 20 µM
cellular effects [10]: minimal cellular effects
cellular cytotoxicity as compared to ddC ([10]; compared with ddC): considerably less
IC50 [11]: 8 µM
IC50 [12]: > 100 µM

Nc1nc2c(ncn2COCCO)c(=O)[nH]1 [acyclovir]
success in treatment of hepatitis [7]: little, if any, success

Nc1ncnc2c1ncn2[C@@H]1O[C@H](CO)[C@@H](O)[C@@H]1O [adenine arabinoside]
success in treatment of hepatitis [7]: limited success

Nc1ncnc2c1ncn2[C@@H]1O[C@H](COP(=O)(O)O)[C@@H](O)[C@@H]1O [ara-AMP]
success in treatment of hepatitis [7]: limited success

Nc1ccn([C@H]2CC[C@@H](CO)O2)c(=O)n1 [ddC, 2',3'-dideoxycytidine]
IC50 [3]: 2800 nM
CC50 [4]: 10 µM
cytotoxicity compared with L-ddC ([4]; in words, compared with L-ddC): much more cytotoxic than L-ddC
IC50 [5]: 22 nM
effects on host mitochondrial DNA ([5]; in words): significant effects on host mitochonrial DNA
IC50 [6]: 1000 nM
activity against HIV [1]: among the most potent inhibitors of HIV
activity against HIV ([1]; listed as DDC): significant activity

O=C(O)P(=O)(O)O [foscarnet]
success in treatment of hepatitis [7]: little, if any, success

interferon alpha
success in treatment of hepatitis [7]: limited success
